According to US20020137929A1, “1 - (3-heterocyclylphenyl) isothiourea, -isourea, -guanidine and -amidine herbicidal agents” (Intellectual Property Department, BASF Aktiengesellschaft, priority 1998, published 2002):

Legend:
AMBEL (Ragweed, Common) = assay: Postemergence herbicidal evaluation; type: in vivo, Ambrosia artemisifolia; details: postemergence
How it was run: (§1)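 First, seedlings were raised for around two weeks. Next, test material in 50/50 acetone/water containing 0.5% TWEEN 20 was sprayed through a nozzle at 40 psi, equivalent to about 0.0156–0.500 kg/ha. Finally, after 4–5 weeks in the greenhouse, plants were rated 0–9.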

CASOB (Sicklepod) = assay: Postemergence herbicidal evaluation; type: in vivo, Cassia obtusifolia; details: postemergence
How it was run: as §1

GALAP (Galium) [1] = assay: Postemergence herbicidal evaluation; type: in vivo, Galium aparine; details: postemergence
How it was run: as §1

[2] = test system: GLXMAW (Soybean, Williams); assay: Postemergence herbicidal evaluation; type: in vivo, Glycine max, (L.) Merr. cv Williams; details: postemergence
How it was run: as §1

[3] = test system: TRZAWR (Wheat, Winter, cv Riband); assay: Postemergence herbicidal evaluation; type: in vivo, Triticum aestivum; details: postemergence
How it was run: as §1

GALAP (Galium) [4] = assay: Preemergence herbicidal evaluation; type: in vivo, Galium aparine; details: rated 4-5 weeks after treatment
How it was run: (§2)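 Herbicidal effect scored visually, 0-9, at 4 to 5 weeks against a control; compound applied preemergence by aqueous acetone spray to seeded soil at about 0.0156 to 0.500 kg/ha.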

SETVI (Foxtail, Green) = assay: Preemergence herbicidal evaluation; type: in vivo, Setaria viridis; details: rated 4-5 weeks after treatment
How it was run: as §2

ORYSAT (Rice, Tebonnet) = assay: Preemergence herbicidal evaluation; type: in vivo, Oryza sativa, (L.) Tebonnet; details: rated 4-5 weeks after treatment
How it was run: as §2

[5] = test system: ECHORC (Watergrass (Calif.)); assay: Preemergence weed control under flooded paddy conditions; type: in vivo, Echinochloa oryzoides; details: rated 3-4 weeks after treatment
How it was run: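 Herbicidal effect is scored visually on a 0-9 scale against an untreated control, three to four weeks after compounds are pipetted into the flood water (1.5 to 3 cm deep) over seeds planted in silt loam at 0.5 cm depth. Rates: about 0.0313 to 0.500 kg/ha.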

CYPSE (Flatsedge) = assay: as above; type: in vivo, Cyperus serotinus; details: rated 3-4 weeks after treatment
How it was run: (§3)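 Visual injury scored 0-9 against control three to four weeks post-treatment, greenhouse-grown. Application: acetone/water (50/50) solutions dosed directly into flood water (1.5-3 cm over silt loam, planted top 0.5 cm), roughly 0.0313 to 0.500 kg/ha active ingredient.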

MOOVA (Monochoria) = assay: as above; type: in vivo, Monochoria vaginalis; details: rated 3-4 weeks after treatment
How it was run: as §3

[6] = test system: SAGPY (Arrowhead (Pygmaea)); assay: as above; type: in vivo, Sagittaria pygmaea; details: rated 3-4 weeks after treatment
How it was run: as §3

[7] = test system: ECHORC (Watergrass (Calif.)); assay: Postemergence weed control under flooded paddy conditions; type: in vivo, Echinochloa oryzoides; details: postemergence weeds, 3-4 weeks after treatment
How it was run: (§4)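 Herbicidal effect is judged by eye on a 0–9 scale versus control, 3–4 weeks after dosing. Dosing is into flood water kept 1.5–3 cm over the soil, at about 0.0313–0.500 kg/ha in aqueous/acetone 50/50 v/v, on 3–5 cm weeds and 1.5–2.5-leaf rice seedlings.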

[8] = test system: SAGPY (Arrowhead (Pygmaea)); assay: as above; type: in vivo, Sagittaria pygmaea; details: postemergence weeds, 3-4 weeks after treatment
How it was run: as §4

CCOC(=O)/C=C1/S/C(=N/c2cc(-n3c(=O)cc(C(F)(F)F)n(C)c3=O)c(F)cc2Cl)N(CC(=O)OCC)C1=O [Compound 14]
AMBEL herbicidal rating (AMBEL (Ragweed, Common); rate 0.0156 kg/ha): 9.0
AMBEL herbicidal rating (AMBEL (Ragweed, Common); rate 0.0313 kg/ha): 9.0
AMBEL herbicidal rating (AMBEL (Ragweed, Common); rate 0.0625 kg/ha): 9.0
AMBEL herbicidal rating (AMBEL (Ragweed, Common); rate 0.1250 kg/ha): 9.0
CASOB herbicidal rating (CASOB (Sicklepod); rate 0.0156 kg/ha): 0.0
CASOB herbicidal rating (CASOB (Sicklepod); rate 0.0313 kg/ha): 2.0
CASOB herbicidal rating (CASOB (Sicklepod); rate 0.0625 kg/ha): 2.0
CASOB herbicidal rating (CASOB (Sicklepod); rate 0.1250 kg/ha): 9.0
GALAP herbicidal rating (GALAP (Galium) [1]; rate 0.0156 kg/ha): 2.0
GALAP herbicidal rating (GALAP (Galium) [1]; rate 0.0313 kg/ha): 4.0
GALAP herbicidal rating (GALAP (Galium) [1]; rate 0.0625 kg/ha): 5.0
GALAP herbicidal rating (GALAP (Galium) [1]; rate 0.1250 kg/ha): 6.0
GLXMAW herbicidal rating ([2]; rate 0.0156 kg/ha): 6.0
GLXMAW herbicidal rating ([2]; rate 0.0313 kg/ha): 8.0
GLXMAW herbicidal rating ([2]; rate 0.0625 kg/ha): 9.0
GLXMAW herbicidal rating ([2]; rate 0.1250 kg/ha): 8.5
TRZAWR herbicidal rating ([3]; rate 0.0156 kg/ha): 5.5
TRZAWR herbicidal rating ([3]; rate 0.0313 kg/ha): 6.0
TRZAWR herbicidal rating ([3]; rate 0.0625 kg/ha): 7.5
TRZAWR herbicidal rating ([3]; rate 0.1250 kg/ha): 9.0
GALAP preemergence herbicidal rating (GALAP (Galium) [4]; rate 0.0313 kg/ha): 0.0
GALAP preemergence herbicidal rating (GALAP (Galium) [4]; rate 0.0625 kg/ha): 0.0
GALAP preemergence herbicidal rating (GALAP (Galium) [4]; rate 0.1250 kg/ha): 9.0
GALAP preemergence herbicidal rating (GALAP (Galium) [4]; rate 0.2500 kg/ha): 9.0
SETVI preemergence herbicidal rating (SETVI (Foxtail, Green); rate 0.0313 kg/ha): 0.5
SETVI preemergence herbicidal rating (SETVI (Foxtail, Green); rate 0.0625 kg/ha): 0.5
SETVI preemergence herbicidal rating (SETVI (Foxtail, Green); rate 0.1250 kg/ha): 6.5
SETVI preemergence herbicidal rating (SETVI (Foxtail, Green); rate 0.2500 kg/ha): 9.0
SETVI preemergence herbicidal rating (SETVI (Foxtail, Green); rate 0.5000 kg/ha): 9.0
ORYSAT preemergence herbicidal rating (ORYSAT (Rice, Tebonnet); rate 0.0313 kg/ha): 0.0
ORYSAT preemergence herbicidal rating (ORYSAT (Rice, Tebonnet); rate 0.0625 kg/ha): 0.0
ORYSAT preemergence herbicidal rating (ORYSAT (Rice, Tebonnet); rate 0.1250 kg/ha): 0.5
ORYSAT preemergence herbicidal rating (ORYSAT (Rice, Tebonnet); rate 0.2500 kg/ha): 1.0
ORYSAT preemergence herbicidal rating (ORYSAT (Rice, Tebonnet); rate 0.5000 kg/ha): 3.0
Herbicidal rating ECHORC ([5]; 0.0313 kg/ha): 1.5
Herbicidal rating ECHORC ([5]; 0.0625 kg/ha): 4.5
Herbicidal rating ECHORC ([5]; 0.1250 kg/ha): 7.5
Herbicidal rating ECHORC ([5]; 0.2500 kg/ha): 9.0
Herbicidal rating CYPSE (CYPSE (Flatsedge); 0.0313 kg/ha): 0.0
Herbicidal rating CYPSE (CYPSE (Flatsedge); 0.0625 kg/ha): 0.0
Herbicidal rating CYPSE (CYPSE (Flatsedge); 0.1250 kg/ha): 3.0
Herbicidal rating CYPSE (CYPSE (Flatsedge); 0.2500 kg/ha): 0.0
Herbicidal rating MOOVA (MOOVA (Monochoria); 0.0313 kg/ha): 4.5
Herbicidal rating MOOVA (MOOVA (Monochoria); 0.0625 kg/ha): 4.5
Herbicidal rating MOOVA (MOOVA (Monochoria); 0.1250 kg/ha): 4.5
Herbicidal rating MOOVA (MOOVA (Monochoria); 0.2500 kg/ha): 0.0
Herbicidal rating SAGPY ([6]; 0.0313 kg/ha): 0.0
Herbicidal rating SAGPY ([6]; 0.0625 kg/ha): 0.0
Herbicidal rating SAGPY ([6]; 0.1250 kg/ha): 0.0
Herbicidal rating SAGPY ([6]; 0.2500 kg/ha): 0.0
Herbicidal rating ECHORC ([7]; rate 0.0313 kg/ha): 0.8
Herbicidal rating ECHORC ([7]; rate 0.0625 kg/ha): 2.3
Herbicidal rating ECHORC ([7]; rate 0.1250 kg/ha): 3.8
Herbicidal rating ECHORC ([7]; rate 0.2500 kg/ha): 7.0
Herbicidal rating SAGPY ([8]; rate 0.0313 kg/ha): 0.0
Herbicidal rating SAGPY ([8]; rate 0.0625 kg/ha): 0.0
Herbicidal rating SAGPY ([8]; rate 0.1250 kg/ha): 0.0
Herbicidal rating SAGPY ([8]; rate 0.2500 kg/ha): 0.0

CCOC(=O)CN1C(=O)C2(CC2)SC1=Nc1cc(-n2c(=O)cc(C(F)(F)F)n(C)c2=O)c(F)cc1Cl [Compound 15, Ethyl 5-{{2-chloro-5-[3,6-dihydro-3-methyl-2,6-dioxo-4-(trifluoromethyl)-1(2H)-pyrimidinyl]-4-fluorophenyl}imino}-7-oxo-4-thia-6-azaspiro[2.4]-heptane-6-acetate]
AMBEL herbicidal rating (AMBEL (Ragweed, Common); rate 0.0156 kg/ha): 0.0
AMBEL herbicidal rating (AMBEL (Ragweed, Common); rate 0.0313 kg/ha): 0.0
AMBEL herbicidal rating (AMBEL (Ragweed, Common); rate 0.0625 kg/ha): 4.0
AMBEL herbicidal rating (AMBEL (Ragweed, Common); rate 0.1250 kg/ha): 9.0
CASOB herbicidal rating (CASOB (Sicklepod); rate 0.0156 kg/ha): 0.0
CASOB herbicidal rating (CASOB (Sicklepod); rate 0.0313 kg/ha): 0.0
CASOB herbicidal rating (CASOB (Sicklepod); rate 0.0625 kg/ha): 0.0
CASOB herbicidal rating (CASOB (Sicklepod); rate 0.1250 kg/ha): 4.0
GALAP herbicidal rating (GALAP (Galium) [1]; rate 0.0156 kg/ha): 0.0
GALAP herbicidal rating (GALAP (Galium) [1]; rate 0.0313 kg/ha): 0.0
GALAP herbicidal rating (GALAP (Galium) [1]; rate 0.0625 kg/ha): 3.0
GALAP herbicidal rating (GALAP (Galium) [1]; rate 0.1250 kg/ha): 6.0
GLXMAW herbicidal rating ([2]; rate 0.0156 kg/ha): 3.5
GLXMAW herbicidal rating ([2]; rate 0.0313 kg/ha): 4.0
GLXMAW herbicidal rating ([2]; rate 0.0625 kg/ha): 4.5
GLXMAW herbicidal rating ([2]; rate 0.1250 kg/ha): 5.5
TRZAWR herbicidal rating ([3]; rate 0.0156 kg/ha): 5.0
TRZAWR herbicidal rating ([3]; rate 0.0313 kg/ha): 6.0
TRZAWR herbicidal rating ([3]; rate 0.0625 kg/ha): 6.5
TRZAWR herbicidal rating ([3]; rate 0.1250 kg/ha): 7.0
GALAP preemergence herbicidal rating (GALAP (Galium) [4]; rate 0.0156 kg/ha): 0.0
GALAP preemergence herbicidal rating (GALAP (Galium) [4]; rate 0.0313 kg/ha): 0.0
GALAP preemergence herbicidal rating (GALAP (Galium) [4]; rate 0.0625 kg/ha): 9.0
GALAP preemergence herbicidal rating (GALAP (Galium) [4]; rate 0.1250 kg/ha): 9.0
GALAP preemergence herbicidal rating (GALAP (Galium) [4]; rate 0.2500 kg/ha): 9.0
SETVI preemergence herbicidal rating (SETVI (Foxtail, Green); rate 0.0156 kg/ha): 0.5
SETVI preemergence herbicidal rating (SETVI (Foxtail, Green); rate 0.0313 kg/ha): 0.5
SETVI preemergence herbicidal rating (SETVI (Foxtail, Green); rate 0.0625 kg/ha): 0.5
SETVI preemergence herbicidal rating (SETVI (Foxtail, Green); rate 0.1250 kg/ha): 4.0
SETVI preemergence herbicidal rating (SETVI (Foxtail, Green); rate 0.2500 kg/ha): 9.0
ORYSAT preemergence herbicidal rating (ORYSAT (Rice, Tebonnet); rate 0.0156 kg/ha): 0.0
ORYSAT preemergence herbicidal rating (ORYSAT (Rice, Tebonnet); rate 0.0313 kg/ha): 0.0
ORYSAT preemergence herbicidal rating (ORYSAT (Rice, Tebonnet); rate 0.0625 kg/ha): 0.5
ORYSAT preemergence herbicidal rating (ORYSAT (Rice, Tebonnet); rate 0.1250 kg/ha): 1.0
ORYSAT preemergence herbicidal rating (ORYSAT (Rice, Tebonnet); rate 0.2500 kg/ha): 1.5
Herbicidal rating ECHORC ([5]; 0.0313 kg/ha): 6.0
Herbicidal rating ECHORC ([5]; 0.0625 kg/ha): 9.0
Herbicidal rating ECHORC ([5]; 0.1250 kg/ha): 9.0
Herbicidal rating ECHORC ([5]; 0.2500 kg/ha): 9.0
Herbicidal rating CYPSE (CYPSE (Flatsedge); 0.0313 kg/ha): 0.0
Herbicidal rating CYPSE (CYPSE (Flatsedge); 0.0625 kg/ha): 0.0
Herbicidal rating CYPSE (CYPSE (Flatsedge); 0.1250 kg/ha): 0.0
Herbicidal rating CYPSE (CYPSE (Flatsedge); 0.2500 kg/ha): 0.0
Herbicidal rating MOOVA (MOOVA (Monochoria); 0.0313 kg/ha): 9.0
Herbicidal rating MOOVA (MOOVA (Monochoria); 0.0625 kg/ha): 9.0
Herbicidal rating MOOVA (MOOVA (Monochoria); 0.1250 kg/ha): 9.0
Herbicidal rating MOOVA (MOOVA (Monochoria); 0.2500 kg/ha): 9.0
Herbicidal rating SAGPY ([6]; 0.0313 kg/ha): 0.0
Herbicidal rating SAGPY ([6]; 0.0625 kg/ha): 0.0
Herbicidal rating SAGPY ([6]; 0.1250 kg/ha): 0.0
Herbicidal rating SAGPY ([6]; 0.2500 kg/ha): 0.0
Herbicidal rating ECHORC ([7]; rate 0.0313 kg/ha): 6.0
Herbicidal rating ECHORC ([7]; rate 0.0625 kg/ha): 9.0
Herbicidal rating ECHORC ([7]; rate 0.1250 kg/ha): 9.0
Herbicidal rating ECHORC ([7]; rate 0.2500 kg/ha): 9.0
Herbicidal rating SAGPY ([8]; rate 0.0313 kg/ha): 0.0
Herbicidal rating SAGPY ([8]; rate 0.0625 kg/ha): 0.0
Herbicidal rating SAGPY ([8]; rate 0.1250 kg/ha): 0.0
Herbicidal rating SAGPY ([8]; rate 0.2500 kg/ha): 0.0
